# Test results published in patent US20240425491A1, “HETEROARYL COMPOUNDS USEFUL IN THE TREATMENT OF COGNITIVE DISORDERS” (University College Cardiff Consultants Limited, priority 2021, published 2024).
# Tests used:
# [1] = molecular target: T1, human α5β3γ2 GABAARs in mouse L(tk−) cells (Homo sapiens, UniProt P18507+P31644); test: In vitro electrophysiological recording assay (α5-GABAAR relative efficacy), QPatch; type: cell-based; conditions: GABA EC10-20
# T1 construct: expressed in transfected cells; host or cells: mouse L(tk−) cells, dexamethasone-inducible vector pMSGneo
# How it was run: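 Whole-cell QPatch recordings at 20-22° C, −65 mV holding, in dexamethasone-induced (1 μM, 24 h) L(tk−) cells. Compound pre-applied ≥1 min, then co-applied with GABA EC10-20; percentage change in leak-corrected peak current, taken at ≥100× Ki, normalised to DMCM efficacy; 0.1% DMSO final.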
# [2] = molecular target: T2, human recombinant GABAAR containing α5β3γ2 subunits (benzodiazepine site) (Homo sapiens, UniProt P18507+P31644); test: In vitro radioligand binding assay (α5-GABAAR Ki); conditions: inhibition of [3H]Ro15-1788 binding, membranes of L(tk−) cells expressing human α5β3γ2; read-out: α5-GABAAR Ki
# T2 construct: expressed in transfected cells; host or cells: mouse L(tk−) cells, dexamethasone-inducible vector pMSGneo
# How it was run: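 Membranes from mouse L(tk^−) cells stably expressing human α5β3γ2 GABAAR incubated 1 h at 4° C with 4 nM [^3H]Ro15-1788 and test compound; nonspecific binding with 1 μM TP003. Filter-bound radioactivity counted; Ki from IC50 by Cheng-Prusoff using measured Kd.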
# T2 sequence (P31644 32-462): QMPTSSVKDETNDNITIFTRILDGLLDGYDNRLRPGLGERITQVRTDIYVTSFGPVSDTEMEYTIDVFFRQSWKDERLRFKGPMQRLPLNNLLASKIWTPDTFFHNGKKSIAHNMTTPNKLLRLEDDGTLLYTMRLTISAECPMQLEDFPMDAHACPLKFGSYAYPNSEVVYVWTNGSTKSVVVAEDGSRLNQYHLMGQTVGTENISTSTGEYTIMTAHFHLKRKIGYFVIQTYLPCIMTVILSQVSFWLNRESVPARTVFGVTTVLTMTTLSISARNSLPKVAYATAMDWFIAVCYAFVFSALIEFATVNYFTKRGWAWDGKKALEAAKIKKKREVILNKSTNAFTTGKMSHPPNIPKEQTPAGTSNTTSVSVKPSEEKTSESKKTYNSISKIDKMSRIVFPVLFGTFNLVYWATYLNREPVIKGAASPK
# T2 sequence (P28472 26-473 partner): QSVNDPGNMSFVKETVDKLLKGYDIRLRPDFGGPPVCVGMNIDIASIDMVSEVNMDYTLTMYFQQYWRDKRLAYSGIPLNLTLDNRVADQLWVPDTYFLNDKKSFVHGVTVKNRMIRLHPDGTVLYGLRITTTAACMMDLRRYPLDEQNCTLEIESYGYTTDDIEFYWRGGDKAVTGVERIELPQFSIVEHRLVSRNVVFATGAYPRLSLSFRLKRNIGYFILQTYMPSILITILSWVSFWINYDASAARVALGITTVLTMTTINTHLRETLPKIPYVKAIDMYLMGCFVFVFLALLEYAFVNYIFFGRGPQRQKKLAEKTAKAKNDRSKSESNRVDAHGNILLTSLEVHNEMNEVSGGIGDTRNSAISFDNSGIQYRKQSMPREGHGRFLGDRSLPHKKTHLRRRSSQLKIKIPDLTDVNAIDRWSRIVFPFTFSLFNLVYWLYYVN
# T2 sequence (P18507 40-475): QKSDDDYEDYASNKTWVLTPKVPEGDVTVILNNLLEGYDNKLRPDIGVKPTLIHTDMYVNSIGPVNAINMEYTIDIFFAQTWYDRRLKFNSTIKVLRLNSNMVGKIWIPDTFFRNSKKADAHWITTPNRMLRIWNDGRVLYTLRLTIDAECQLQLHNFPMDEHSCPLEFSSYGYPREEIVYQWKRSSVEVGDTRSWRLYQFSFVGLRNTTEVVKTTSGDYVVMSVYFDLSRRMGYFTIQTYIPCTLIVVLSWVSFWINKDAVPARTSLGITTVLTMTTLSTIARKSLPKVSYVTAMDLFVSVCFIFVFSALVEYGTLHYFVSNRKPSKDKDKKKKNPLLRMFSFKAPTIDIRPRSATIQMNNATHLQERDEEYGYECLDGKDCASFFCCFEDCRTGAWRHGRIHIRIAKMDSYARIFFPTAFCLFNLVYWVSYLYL
# T1 sequence (P31644 32-462): as the sequence (P31644 32-462) above
# T1 sequence (P28472 26-473 partner): as the sequence (P28472 26-473 partner) above
# T1 sequence (P18507 40-475): as the sequence (P18507 40-475) above
SMILES,Ki [2] [nM],"α5-GABAAR Relative Efficacy (to DMCM), Qpatch ([1]; Conc 3 μM)",further results
"COc1nc(-c2ccc(CO)nc2)cnc1NC(=O)c1c(-c2ccccc2)noc1C [Example 148, N-[5-[6-(Hydroxymethyl)-3-pyridyl]-3-methoxy-pyrazin-2-yl]-5-methyl-3-phenyl-isoxazole-4-carboxamide]",1.2,–,"α5-GABAAR Relative Efficacy (to DMCM), Qpatch ([1]; Conc 0.3 μM): −0.80"
"COc1nc(-c2ccc(=O)n(C)c2)cnc1NC(=O)c1c(-c2ccccc2)noc1C [Example 149, N-[3-Methoxy-5-(1-methyl-6-oxo-3-pyridyl)pyrazin-2-yl]-5-methyl-3-phenyl-isoxazole-4-carboxamide]",5.2,–,"α5-GABAAR Relative Efficacy (to DMCM), Qpatch ([1]; Conc 1 μM): −0.66"
"COc1nc(-c2cnc(N)cn2)cnc1NC(=O)c1c(-c2ccccc2)noc1C [Example 150, N-[5-(5-Aminopyrazin-2-yl)-3-methoxy-pyrazin-2-yl]-5-methyl-3-phenyl-isoxazole-4-carboxamide]",5.1,–,"α5-GABAAR Relative Efficacy (to DMCM), Qpatch ([1]; Conc 1 μM): −0.83"
"COc1nc(-n2ccnc2)ccc1NC(=O)c1c(C)nnn1-c1ccccc1 [Example 151, N-(6-(1H-Imidazol-1-yl)-2-methoxypyridin-3-yl)-4-methyl-1-phenyl-1H-1,2,3-triazole-5-carboxamide]",45.1,−0.89,–
"COc1nc(-n2cnc(CN(C)C)c2)ccc1NC(=O)c1c(-c2ccccc2)noc1C [Example 152, N-[6-[4-[(Dimethylamino)methyl]imidazol-1-yl]-2-methoxy-3-pyridyl]-5-methyl-3-phenyl-isoxazole-4-carboxamide]",22.9,−0.27,–
"COc1nc(-n2cncc2CN(C)C)ccc1NC(=O)c1c(-c2ccccc2)noc1C [Example 153, N-[6-[5-[(Dimethylamino)methyl]imidazol-1-yl]-2-methoxy-3-pyridyl]-5-methyl-3-phenyl-isoxazole-4-carboxamide]",1.7,–,"α5-GABAAR Relative Efficacy (to DMCM), Qpatch ([1]; Conc 0.3 μM): −0.83"
"COc1nc(-n2ccnc2)ccc1NC(=O)c1c(-c2ccccc2)nnn1C [Example 154, N-(6-(1H-Imidazol-1-yl)-2-methoxypyridin-3-yl)-1-methyl-4-phenyl-1H-1,2,3-triazole-5-carboxamide]",25.3,−0.89,–
"COc1nc(-c2cnc3n2CCOC3)cnc1NC(=O)c1c(-c2ccccc2)noc1C [Example 155, N-[5-(6,8-Dihydro-5H-imidazo[2,1-c][1,4]oxazin-3-yl)-3-methoxy-pyrazin-2-yl]-5-methyl-3-phenyl-isoxazole-4-carboxamide]",2.3,–,"α5-GABAAR Relative Efficacy (to DMCM), Qpatch ([1]; Conc 0.3 μM): −0.91"
"COc1nc(-c2ccc(CO)nc2)ccc1NC(=O)c1c(C)nnn1-c1ccccc1 [Example 160, N-(6′-(Hydroxymethyl)-6-methoxy-[2,3′-bipyridin]-5-yl)-4-methyl-1-phenyl-1H-1,2,3-triazole-5-carboxamide]",28,−0.77,–
"COc1nc(-c2cnc(CN(C)C)nc2)ccc1NC(=O)c1c(C)nnn1-c1ccccc1 [Example 161, N-(6-(2-((Dimethylamino)methyl)pyrimidin-5-yl)-2-methoxypyridin-3-yl)-4-methyl-1-phenyl-1H-1,2,3-triazole-5-carboxamide]",61.5,–,"α5-GABAAR Relative Efficacy (to DMCM), Qpatch ([1]; Conc 10 μM): −0.71"
"CCOc1ncc(-c2ccc(NC(=O)c3c(C)nnn3-c3ccccc3)c(OC)n2)cn1 [Example 162, N-(6-(2-Ethoxypyrimidin-5-yl)-2-methoxypyridin-3-yl)-4-methyl-1-phenyl-1H-1,2,3-triazole-5-carboxamide]",33.6,−0.90,–
"COc1nc(-c2cnc(OCCN(C)C)nc2)ccc1NC(=O)c1c(-c2ccccc2)noc1C [Example 163, N-[6-[2-[2-(Dimethylamino)ethoxy]pyrimidin-5-yl]-2-methoxy-3-pyridyl]-5-methyl-3-phenyl-isoxazole-4-carboxamide]",4.1,–,"α5-GABAAR Relative Efficacy (to DMCM), Qpatch ([1]; Conc 1 μM): −1.11"
"COc1nc(-c2c[nH]c(=O)c(F)c2)ccc1NC(=O)c1c(C)nnn1-c1ccccc1 [Example 164, N-(5′-Fluoro-6-methoxy-6′-oxo-1′,6′-dihydro-[2,3′-bipyridin]-5-yl)-4-methyl-1-phenyl-1H-1,2,3-triazole-5-carboxamide]",27.2,−0.65,–
"COc1nc(-c2cnc(C(N)=O)nc2)ccc1NC(=O)c1c(C)nnn1-c1ccccc1 [Example 165, 5-(6-Methoxy-5-(4-methyl-1-phenyl-1H-1,2,3-triazole-5-carboxamido)pyridin-2-yl)pyrimidine-2-carboxamide]",35.4,−0.84,–
"CNc1ncc(-c2ccc(NC(=O)c3c(C)nnn3-c3ccccc3)c(OC)n2)cn1 [Example 166, N-(2-Methoxy-6-(2-(methylamino)pyrimidin-5-yl)pyridin-3-yl)-4-methyl-1-phenyl-1H-1,2,3-triazole-5-carboxamide]",31,−0.98,–
"COc1nc(-c2cnc(NCCN(C)C)nc2)ccc1NC(=O)c1c(-c2ccccc2)noc1C [Example 167, N-[6-[2-[2-(Dimethylamino)ethylamino]pyrimidin-5-yl]-2-methoxy-3-pyridyl]-5-methyl-3-phenyl-isoxazole-4-carboxamide]",0.7,–,"α5-GABAAR Relative Efficacy (to DMCM), Qpatch ([1]; Conc 1 μM): −0.92"
"CNCc1ncc(-c2ccc(NC(=O)c3c(-c4ccccc4)noc3C)c(OC)n2)cn1.Cl [Example 168, N-[2-Methoxy-6-[2-(methylaminomethyl)pyrimidin-5-yl]-3-pyridyl]-5-methyl-3-phenyl-isoxazole-4-carboxamide hydrochloride]",2.7,–,"α5-GABAAR Relative Efficacy (to DMCM), Qpatch ([1]; Conc 0.3 μM): −0.72"
"CNCc1ncc(-c2cnc(NC(=O)c3c(-c4ccccc4)noc3C)c(OC)n2)cn1.Cl [Example 169, N-[3-Methoxy-5-[2-(methylaminomethyl)pyrimidin-5-yl]pyrazin-2-yl]-5-methyl-3-phenyl-isoxazole-4-carboxamide hydrochloride]",5.2,–,"α5-GABAAR Relative Efficacy (to DMCM), Qpatch ([1]; Conc 1 μM): −0.88"
"CNCCNc1ncc(-c2ccc(NC(=O)c3c(-c4ccccc4)noc3C)c(OC)n2)cn1.Cl [Example 170, N-[2-Methoxy-6-[2-[2-(methylamino)ethylamino]pyrimidin-5-yl]-3-pyridyl]-5-methyl-3-phenyl-isoxazole-4-carboxamide hydrochloride]",0.5,–,"α5-GABAAR Relative Efficacy (to DMCM), Qpatch ([1]; Conc 0.1 μM): −0.84"
"COc1nc(-c2cnc(NCCN)nc2)ccc1NC(=O)c1c(-c2ccccc2)noc1C.Cl [Example 171, N-[6-[2-(2-Aminoethylamino)pyrimidin-5-yl]-2-methoxy-3-pyridyl]-5-methyl-3-phenyl-isoxazole-4-carboxamide hydrochloride]",3.8,–,"α5-GABAAR Relative Efficacy (to DMCM), Qpatch ([1]; Conc 0.1 μM): −0.75"
"COc1nc(-c2cnc(C(=O)NCCN(C)C)nc2)ccc1NC(=O)c1c(-c2ccccc2)noc1C [Example 172, N-[6-[2-[2-(Dimethylamino)ethylcarbamoyl]pyrimidin-5-yl]-2-methoxy-3-pyridyl]-5-methyl-3-phenyl-isoxazole-4-carboxamide]",0.2,–,"α5-GABAAR Relative Efficacy (to DMCM), Qpatch ([1]; Conc 0.1 μM): −0.80"
"CNCCNC(=O)c1ncc(-c2ccc(NC(=O)c3c(-c4ccccc4)noc3C)c(OC)n2)cn1.Cl [Example 173, N-[2-Methoxy-6-[2-[2-(methylamino)ethylcarbamoyl]pyrimidin-5-yl]-3-pyridyl]-5-methyl-3-phenyl-isoxazole-4-carboxamide hydrochloride]",0.3,–,"α5-GABAAR Relative Efficacy (to DMCM), Qpatch ([1]; Conc 0.1 μM): −0.88"
"COc1nc(-c2ccn3nc(N)nc3c2)ccc1NC(=O)c1c(-c2ccccc2)nnn1C [Example 174, N-(6-(2-Amino-[1,2,4]triazolo[1,5-a]pyridin-7-yl)-2-methoxypyridin-3-yl)-1-methyl-4-phenyl-1H-1,2,3-5-carboxamide]",1.4,–,"α5-GABAAR Relative Efficacy (to DMCM), Qpatch ([1]; Conc 0.3 μM): −0.84"
"COc1nc(-c2cnc(NCCO)nc2)ccc1NC(=O)c1c(-c2ccccc2)noc1C [Example 175, N-[6-[2-(2-Hydroxyethylamino)pyrimidin-5-yl]-2-methoxy-3-pyridyl]-5-methyl-3-phenyl-isoxazole-4-carboxamide]",0.5,–,"α5-GABAAR Relative Efficacy (to DMCM), Qpatch ([1]; Conc 0.1 μM): −0.89"
"Cc1onc(-c2ccccc2)c1C(=O)Nc1ccc(-n2ccnc2)nc1N(C)C [Example 176, N-[2-(Dimethylamino)-6-imidazol-1-yl-3-pyridyl]-5-methyl-3-phenyl-isoxazole-4-carboxamide]",9,–,"α5-GABAAR Relative Efficacy (to DMCM), Qpatch ([1]; Conc 1 μM): −0.36"
"COc1nc(-n2cnc3c2CCNC3)ccc1NC(=O)c1c(-c2ccccc2)noc1C.Cl [Example 178, N-[2-methoxy-6-(4,5,6,7-tetrahydroimidazo[4,5-c]pyridin-1-yl)-3-pyridyl]-5-methyl-3-phenyl-isoxazole-4-carboxamide hydrochloride]",2,–,"α5-GABAAR Relative Efficacy (to DMCM), Qpatch ([1]; Conc 0.3 μM): −0.62"
"CNCc1ccc(-c2ccc(NC(=O)c3c(-c4ccccc4)noc3C)c(OC)n2)cc1.Cl [Example 183, N-[2-Methoxy-6-[4-(methylaminomethyl)phenyl]-3-pyridyl]-5-methyl-3-phenyl-isoxazole-4-carboxamide hydrochloride]",14.2,−0.68,–
